Test results: patent US6020363A, “Isocoumarin derivatives and use thereof in drugs” (Mercian Corporation, priority 1998, dated 2000)
Values belong to the compound of their own block, whether it stands above or below them.

Legend:
Acute toxicity in mice = format: in vivo, DBA/1J mice; details: 100 mg/kg; for evidence of toxicity, single administration: mouse, in vivo; for mortality, single administration: oral or intraperitoneal, eight DBA/1J mice
Method: (§1) Among the compounds in accordance with the present invention, each of Compounds 1, 2 and 3 was orally or intraperitoneally administered to eight DBA/1J mice in a dose of 100 mg/kg body weight. […] This seems to indicate that the compounds used in the present invention have no or very little, if any, acute toxicity. Moreover, Compound 1, in a dose of 100 mg/kg body weight, or Compound 3, in a dose of 30 mg/kg body weight, was orally administered to eight mice of the aforesaid strain for 40 days. […] Thus, the compounds of the present invention have little subacute toxicity. Since other compounds in accordance with the present invention are estimated to have similar properties, the compounds of the present invention can be used very safely.

[1] = tested on: collagen-induced arthritis; test: Inhibitory Effect on Collagen-Induced Arthritis (No. 1), sole thickness; format: in vivo, DBA/1J mice; details: mean ± SD
Method: (§2) The preventive effect on the onset of collagen-induced arthritis was tested by using DBA/1J mice in groups of 5-8. Specifically, type II collagen was mixed with an equal volume of Freund's complete adjuvant and emulsified to prepare a 1 mg/ml emulsion. Mice were sensitized by administering 0.1 ml of this emulsion intracutaneously to the root of the tail. After 21 days, the mice were additionally immunized by emulsifying type II collagen in the same manner as before and administering 0.1 ml of the emulsion intraperitoneally so as to induce arthritis.
Starting from the day of the first sensitization with type II collagen, Compound 1 was orally administered, once a day, for 43 days in a dose of 10 or 30 mg/kg body weight. Similarly, each of Compounds 2 and 3 was intraperitoneally administered, once a day, for 43 days in a dose of 1 or 10 mg/kg body weight. Their inhibitory effect on collagen-induced arthritis was evaluated by measuring the sole thicknesses of the hind legs periodically with digital vernier calipers.

adjuvant arthritis = details: oral administration, rats; cited from earlier work
[2] = tested on: neogenesis of tumor vessels induced by the transplanted mouse tumor S180; test: Inhibitory Effect on Vascularization Using the Mouse Back Subcutaneous Transplantation Method; format: in vivo, male ICR mouse; details: for Vascularization score: oral 100 mg/kg, 5 days, mean ± SE
Method: The inhibitory effect of Compounds 1 and 3 in accordance with the present invention on the neogenesis of tumor vessels induced by the transplanted mouse tumor S180 was tested using the mouse back subcutaneous transplantation method. Specifically, 1×10^7 S180 cells were injected into a chamber formed by attaching a Millipore filter having a pore size of 0.45 μm to either side of a Millipore ring. After the injection hole was stopped up, this chamber was transplanted into an air sac formed beneath the skin of the back of a male ICR mouse (9-10 weeks old). Starting from the day of transplantation, a test compound or a solvent control comprising a 0.5% carboxymethylcellulose solution was orally administered for 5 days. After the skin was separated on the fifth day of transplantation, an O-ring of 10 mm internal diameter having the same shape as the Millipore ring was placed on the part of the skin which had been in contact with the chamber, observed under a stereoscopic microscope, and photographed.
In the photographs so taken, the degree of vascularization was rated 0, 1, 2 or 3 according to the number of 3 mm or longer tortuous blood vessels characteristic of tumoral vessels, and scored on the following basis.
0: No tumoral vessel was observed.
1: One tumoral vessel was observed.
2: Two tumoral vessels were observed.
3: Three or more tumoral vessels were observed.

[3] = Levels of Orally Administered Test Compounds in Blood Plasma; format: in vivo, male ICR mice
Method: Each of Compound 3 and MI43 was orally administered to fasted male ICR mice (weighing 18-21 g) in a dose of 25 mg/kg. Blood samples were collected from the mice 5 minutes, 30 minutes, 4 hours, 8 hours and 24 hours after administration (3 mice per point for Compound 3 and 5 mice per point for MI43). These blood samples were centrifuged to obtain blood plasma samples. Each of the blood plasma samples was subjected to the following pretreatment and then analyzed by high-performance liquid chromatography (HPLC). 1.8 ml of a saturated aqueous solution of ammonium sulfate and 1.0 ml of methanol were added to and mixed with 0.2 ml of the blood plasma sample. This mixture was shaken with 3.5 ml of ethyl acetate. After this mixture was centrifuged, the ethyl acetate layer was separated. Moreover, the aqueous layer was shaken with 3.5 ml of ethyl acetate, followed by centrifugation. The ethyl acetate layer thus obtained was combined with the previously separated ethyl acetate layer, and this mixture was evaporated to dryness under reduced pressure. The resulting residue was redissolved in 0.2 ml of a 50% aqueous solution of acetonitrile and used as a sample for HPLC.
The analytical conditions for HPLC (using the CCTD system manufactured by Toso Co., Ltd.) were as follows: A YMC A-312 column (ODS 6×150 mm; manufactured by YMC Co., Ltd.) was used as the column. As the mobile phase, a 60:40 mixture of acetonitrile and 0.1% aqueous TFA was used for Compound 3, and a 40:60 mixture of acetonitrile and 0.1% aqueous TFA was used for MI43. The rest compound was eluted at a flow velocity of 1.0 ml/min and detected by UV light at 244 nm.

[4] = tested on: collagen-induced arthritis; test: Inhibitory Effect on Collagen-Induced Arthritis (No. 2), arthritis score; format: in vivo, DBA/1J mice; details: oral
Method: as §2
Animals having arthritis induced in the same manner as described above were used in groups of 7-8. Compound 3 was orally administered, once a day, for 21 days following the additional immunization in a dose of 1, 3 or 10 mg/kg body weight. For comparative purposes, MI43 was similarly administered to another group in a dose of 30 mg/kg body weight. According to the degree of rubor, swelling and rigidity in each of the forelegs and hind legs of the experimental animals, their inhibitory effect on collagen-induced arthritis was evaluated on the following basis by a score ranging from 0 to 4 (with a maximum value of 16).
0: No symptom is observed.
2: Two or more small joints, or a relatively large joint such as that of the wrist or ankle, show rubor or swelling.
4: The total swelling of the hand or foot reaches its peak and, moreover, is accompanied by joint rigidity.

[5] = tested on: collagen-induced arthritis; details: oral administration, mice; cited from earlier work
[6] = tested on: various animal cells and human cancer cells; details: cited from earlier work
[7] = design: species or system DBA/1J mice; details: mouse, in vivo, po, 100 mg/kg
Method: as §1

carrageenin edema = test: Effect on Carrageenin Edema; format: in vivo, ICR mice
Method: The effect on carrageenin edema was tested by using ICR mice in groups of 6-7. Specifically, Compound 3 was orally administered thereto in a dose of 3 or 30 mg/kg body weight. As a positive control drug, indomethacin was similarly administered in a dose of 20 mg/kg body weight. After 30 minutes, 25 μl of a 1% carrageenin solution was subcutaneously injected into the sole of the right hind leg. Two hours after the administration of carrageenin, the thickness of the sole was measured with digital vernier calipers, and the degree of edema (%) based on the thickness measured before administration was calculated.

Compound: COc1cc(O)c2c(=O)oc(CC(=O)O)cc2c1 [Compound 2, (8-hydroxy-6-methoxy-1-oxo-1H-2-benzopyran-3-yl)acetic Acid]
evidence of toxicity, single administration (Acute toxicity in mice): no animal showed evidences of toxicity
mortality, single administration (Acute toxicity in mice): No animal died
Sole thickness (sum of left and right, mm), after 37 days ([1]; intraperitoneal, 1 mg/kg/day, *p < 0.05 vs control (8.02 ± 0.82)): 6.81 ± 1.07 mm
Sole thickness (sum of left and right, mm), after 37 days ([1]; intraperitoneal, 10 mg/kg/day, *p < 0.05 vs control (8.02 ± 0.82)): 7.19 ± 0.40 mm

concentration at 5 min ([3]; mouse, plasma, oral 25 mg/kg, 5 min, read-out: Concentration of unchanged M143 in blood plasma, mean): 811 ng/mL
concentration at 0.5 h ([3]; mouse, plasma, oral 25 mg/kg, 30 min, read-out: Concentration of unchanged M143 in blood plasma, mean): 155 ng/mL
concentration at 4 h ([3]; mouse, plasma, oral 25 mg/kg, 4 hr, read-out: Concentration of unchanged M143 in blood plasma, mean): 48 ng/mL
Tmax ([3]; mouse, plasma, unchanged compound, oral 25 mg/kg, read-out: time of peak / highest plasma level after administration (converted)): 5 min
number of metabolites detected in plasma ([3]; oral 25 mg/kg): 5
plasma concentration course after 5 minutes (in words) ([3]; unchanged MI43, oral 25 mg/kg): decreased sharply
Compound: COc1cc(O)c2c(=O)oc(CO)cc2c1 [MI43, 3-hydroxymethyl-6-methoxy-8-hydroxy-1H-2-benzopyran-1-one, reference compound]
inhibition of adjuvant arthritis (in words) (adjuvant arthritis): significantly inhibit adjuvant arthritis in rats
Vascularization score ([2]; n = 11, control 2.93 ± 0.07, Table 4): 1.09 ± 0.39
reduction in arthritis score (in words) ([4]; 30 mg/kg body weight): no significant reduction in arthritis score
Score after 37 days ([4]; 30 mg/kg/day, mean ± SE, maximum 16, control 9.25 ± 1.35): 5.29 ± 1.77
inhibition of collagen-induced arthritis (in words) [5]: significantly inhibit adjuvant arthritis in rats and collagen-induced arthritis in mice
growth-inhibiting activity (in words) [6]: growth-inhibiting activity against various animal cells and human cancer cells

Compound: COc1cc(O)c2c(=O)oc(C(=O)O)cc2c1 [Compound 1, 8-hydroxy-6-methoxy-1-oxo-1H-2-benzopyran-3-carboxylic Acid]
evidence of toxicity, single administration (Acute toxicity in mice): no animal showed evidences of toxicity
mortality, single administration (Acute toxicity in mice): No animal died
Vascularization score ([2]; n = 9, p < 0.05 vs control (3.00 ± 0.00), Table 3): 1.67 ± 0.53
inhibition of vascularization induced by tumor cell S180 (in words) ([2]; oral, 100 mg/kg body weight): significantly inhibited vascularization
evidence of toxicity, 40 days [7]: no animal showed evidences of toxicity
mortality, 40 days [7]: No animal died
Sole thickness (sum of left and right, mm), after 37 days ([1]; oral, 10 mg/kg/day, **p < 0.01 vs control (8.02 ± 0.82)): 6.44 ± 0.40 mm
Sole thickness (sum of left and right, mm), after 37 days ([1]; oral, 30 mg/kg/day, **p < 0.01 vs control (8.02 ± 0.82)): 6.12 ± 0.22 mm

Compound: COc1ccc2c(c1)c(CC(=O)O)c(C)n2C(=O)c1ccc(Cl)cc1 [Indomethacin, reference compound]
effect on carrageenin edema (in words) (carrageenin edema; 20 mg/kg): significan inhibitory effect
Degree of edema (%) (carrageenin edema; oral 20 mg/kg, 2 h after carrageenin, mean ± SE, **p < 0.01 vs control (47.4 ± 2.8)): 18.5 ± 3.5%
